Experimental data: patent publication US10512656B2, “Compositions and methods for the treatment of lysosomal storage disorders and disorders characterized by lysosomal dysfunction” (Baylor College of Medicine, priority 2016, dated 2019)

How the values were obtained:
[1] = biological target: TFEB-3×FLAG (transcription factor EB, wild type, Flag-tagged) (UniProt P19484)
TFEB [2] = experiment: TFEB nuclear translocation in cells expressing constitutively active Akt (Akt-DD); assay type: cell-based, human; settings: 24 h
Description: FIG. 16. Trehalose controls Akt regulation of TFEB in a GSK3β-independent manner. (a) HeLa cells were treated with trehalose for 24 h or left untreated. Immunoblot analyses were used to evaluate levels of GSK33 and its phosphorylation status. GAPDH was used as a loading control. (b) HeLa cells were cotransfected with TFEB-3×Flag and constitutively active GSK3β (CA-GSK3β), treated with trehalose or MK2206 for 24 h, and examined by immunofluorescence labeling for Flag (red) and GSK3β (green). Scale bar is 20 […]. (c) HeLa cells were cotransfected with TFEB-3×Flag and constitutively active Akt (Akt-DD), treated with the GSK3β inhibitor CHIR99021 for 24 h, and examined by immunofluorescence labeling for Flag (red) and Akt (green). Scale bar is 20 μm.

TFEB [3] = experiment: TFEB nuclear translocation in HeLa/TFEB cells; assay type: cell-based, human; settings: confocal microscopy and subcellular fractionation
Description: Control (Coriell Institute, USA) and JNCL fibroblasts (Gaslini Institute, Italy) were grown in DMEM (1:1, HyClone) supplemented with 10% heat-inactivated fetal bovine serum (FBS, Atlanta Biologicals), 2 mM L-glutamine, 100 U/ml penicillin and […] streptomycin (Invitrogen). HeLa cells were incubated for 2 h with LY294002 ([…], Cell Signaling), Torin 1 (300 nM, Cayman Chemical) or for 24 h with trehalose (100 mM, Sigma), rapamycin (300 nM, Sigma), MK2206 (1 μM, Selleckchem), U0126 ([…], Tocris) and dialyzed serum (GE Healthcare Life Sciences) for 30 min. For immunofluorescence assay, cells were grown on coverslips in 24-well plates. After the treatment, cells were washed with PBS and fixed with methanol for 10 min. Cells were then blocked with blocking reagent (0.1% saponin, 10% bovine serum in PBS) for 1 h and incubated with appropriate primary antibody(s) (1:100) for 3 h at room temperature. After three washes with PBS, the cells were incubated with appropriate secondary antibodies (1:500) for 1 h at room temperature. Coverslips were then mounted with vectashield containing 4,6-diamidino-2-phenylindole (H-1200) for imaging via confocal microscopy. Cell pellets were resuspended in lysis buffer (10 mM Hepes pH 7.9, 10 mM KCl, 0.1 mM EDTA and 0.4% Nonidet P40) with inhibitors by pipetting and kept in ice for 30 min. After 1 min of spin at full speed, the supernatant was collected as cytosolic fraction. The pellet was washed twice with lysis buffer and resuspended with nuclear buffer (20 mM Hepes pH 7.9, 0.4M NaCl and 1 mM EDTA) containing phosphatases and proteases inhibitors. After 15 min of vigorous shaking on an Eppendorf shaker, the pellet was spun down at full speed for 10 min. The supernatant was used as the nuclear fraction.

[4] = system: Batten mice (Cln3 KO mice); experiment: Neuronal cell death (density of CAS-3 positive cells); assay type: in vivo, mouse
Description: (§1) Batten mice (Cln3 KO mice) were administered trehalose, a low dose of miglustat, a high dose of miglustat, or a combination of trehalose and miglustat. Two controls were used in these experiments: (1) untreated Batten mice, and (2) untreated wild type mice. Neuronal cell death (measured by the density (no. of cells/area) of CAS-3 positive cells), neuroinflammation (measured by the number of GFAP-positive astrocyte cells in the neuronal system), and macrophage infiltration into the nervous system (measured by the % area of CD68) were measured.

[5] = system: Batten mice (Cln3 KO mice); experiment: Macrophage infiltration (% area of CD68); assay type: in vivo, mouse
Description: as §1

[6] = system: Batten mice (Cln3 KO mice); experiment: Astrogliosis (GFAP-positive cells); assay type: in vivo, mouse
Description: as §1

[7] = all miglustat-treated Batten mice
[8] = all miglustat-treated mice, P<0.05

Chain of TFEB-3×FLAG (transcription factor EB, wild type, Flag-tagged) (P19484 whole entry): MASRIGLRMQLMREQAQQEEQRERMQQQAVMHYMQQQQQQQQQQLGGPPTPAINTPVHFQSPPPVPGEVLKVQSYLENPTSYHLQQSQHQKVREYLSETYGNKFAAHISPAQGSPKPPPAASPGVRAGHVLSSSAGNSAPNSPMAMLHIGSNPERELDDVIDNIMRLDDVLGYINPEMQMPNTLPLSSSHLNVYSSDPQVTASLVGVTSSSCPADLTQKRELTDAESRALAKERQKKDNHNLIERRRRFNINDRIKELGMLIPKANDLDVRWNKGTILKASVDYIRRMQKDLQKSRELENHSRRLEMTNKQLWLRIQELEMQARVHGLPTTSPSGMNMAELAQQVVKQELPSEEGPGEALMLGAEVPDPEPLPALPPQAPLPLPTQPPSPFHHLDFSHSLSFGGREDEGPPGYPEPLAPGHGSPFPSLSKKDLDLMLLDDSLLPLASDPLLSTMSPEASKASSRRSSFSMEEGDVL

purified, active AKT1 enzyme (SignalChem)
in vitro Akt kinase assay ([32P]ATP, autoradiography) [1]: Akt phosphorylates purified TFEB

Cc1c[nH]c(-c2cnc(NCCNc3ccc(C#N)cn3)nc2-c2ccc(Cl)cc2Cl)n1 [CHIR-99021]
TFEB nuclear translocation (TFEB [2]): promoted nuclear translocation of TFEB

CCC(=O)N1CCN(c2ccc(-n3c(=O)ccc4cnc5ccc(-c6cnc7ccccc7c6)cc5c43)cc2C(F)(F)F)CC1 [Torin 1]
TFEB nuclear translocation on kinase inhibitors (TFEB [3]): TFEB nuclear translocation

CCCCN1C[C@H](O)[C@@H](O)[C@H](O)[C@H]1CO [miglustat]
neuronal cell death vs wild-type mice [4, 7]: indistinguishable from the wild-type mice
neuronal cell death vs untreated Batten mice ([4]; low dose, high dose, or combined with trehalose, P<0.05): less neuronal cell death
macrophage infiltration vs wild-type mice [5, 7]: indistinguishable from the wild-type mice
macrophage infiltration vs untreated Batten mice [5, 8]: less macrophage infiltration
astrogliosis vs wild-type mice [6, 7]: indistinguishable from the wild-type mice
GFAP-positive cells vs untreated Batten mice [6, 8]: less GFAP-positive cells
